{
  "source": "patent US20090163450A1",
  "about": "“COMBINATIONS COMPRISING A PROSTAGLANDIN AND USES THEREOF” (priority 2007, published 2009)",
  "key": {"[1]": {"tested_on": "human B52 NSCLC cells xenografted to nude mice", "conditions": "for effect on tumor growth (tumor area): 1st experiment", "experimental": "(§1) B-52 NSCL tumor pieces obtained from in vivo passage, were implanted s.c. in the inguinal region of female nude mice. Treatment was started when the tumors were approximately 25 mm^2 in size. Tumor area was determined by caliper measurements twice weekly.\nB-52 tumor pieces obtained from in vivo passage, were implanted s.c. in the inguinal region of female nude mice. Treatment was started when the tumors were approximately 25 mM2 in size. Tumor area was determined by caliper measurements twice weekly.\n(§2) Tumor area was determined by caliper measurements."}, "[2]": {"tested_on": "human B-52 NSCL cancer model, xenografted in nude mice", "experiment": "2nd experiment: B-52 NSCL cancer xenograft in nude mice, epothilone with Iloprost and/or O-acetyl salicylic acid", "conditions": "Iloprost 0.2 mg/kg i.v. days 22-26, O-acetyl salicylic acid 60 mg/kg p.o. days 19-29; for effect on tumor growth (tumor area): 2nd experiment (FIG. 1), epothilone 8 mg/kg i.v. once day 24", "experimental": "as §1\nThe 2nd Experiment was made to evaluate in a human B-52 NSCL cancer model, xenografted in nude mice the effect of: • Iloprost and O-acetyl salicyclic acid alone, • the combination of Iloprost and epothilone, • the combination of O-acetyl salicyclic acid and epothilone, • the combination of Iloprost and O-acetyl salicyclic acid as well as • the combination of Iloprost, O-acetyl salicyclic acid and epothilone.\nThe study was designed to determine the response of a lung cancer model to a cytotoxic treatment regime with the epothilone derivative in combination with Iloprost, O-acetyl salicylic acid or the combination thereof.\nThe tumor-inhibiting effect of, O-acetyl salicylic acid (ASS) and iloprost was investigated in the human B-52 NSCL cancer model, xenografted in nude mice.\nB-52 tumor pieces obtained from in vivo passage, were implanted s.c. in the inguinal region of female nude mice. Treatment was started when the tumors were approximately 25 mm^2 in size. Tumor area was determined by caliper measurements twice weekly.\nas §2"}},
  "note": "“Also recorded” adds a separate entry of the source. Read-outs that look alike come from different tables or passages of the source.",
  "data": [
    {"smiles": "C=CC[C@H]1C(=O)C(C)(C)[C@@H](O)CC(=O)O[C@H](c2ccc3sc(C)nc3c2)C[C@@H]2O[C@]2(C)CCC[C@H](C)[C@@H]1O", "note": "[epothilone, (1S,3S,7S,10R,11S,12S,16R)-7,11-dihydroxy-3-(2-methyl-benzothiazol-5-yl)-10-(prop-2-en-1-yl)-8,8,12,16-tetramethyl-4,17-dioxabicyclo[14.1.0]heptadecane-5,9-dione]", "values": [
      {"measurement": "effect on tumor growth (tumor area)", "setting": "[1]; epothilone at the highest dose of 10 mg/kg i.v. 1x day 29", "result": "reduced tumor growth"},
      {"measurement": "toxicity", "setting": "[1]; mouse, in vivo, iv, 10 mg/kg", "result": "proved to be toxic"},
      {"measurement": "effect on tumor growth (tumor area)", "setting": "[2]", "result": "slightly reduced tumor growth; also recorded: effective in growth inhibiting"}
    ]},
    {"smiles": "CC#CCC(C)[C@H](O)/C=C/[C@@H]1[C@H]2C/C(=C/CCCC(=O)O)C[C@H]2C[C@H]1O", "note": "(stereo partly drawn) [Iloprost, ((E)-5-{(3aS,4R,5R,6aS)-5-Hydroxy-4-[(E)-(3S,4RS)-3-hydroxy)-4-methyl-1-octen-6-ynyl]perhydropentalen-2-ylidene}valeric acid]", "values": [
      {"measurement": "effect on tumor growth (tumor area)", "setting": "[1]; Iloprost 0.2 mg/kg i.v. 1x/day days 27-31, epothilone 7 or 10 mg/kg i.v. 1x day 29", "result": "no significant effect on tumor growth"},
      {"measurement": "effect on tumor growth (tumor area)", "setting": "[2]", "result": "no effects"},
      {"measurement": "effect on bodyweight", "setting": "[2]; 2nd experiment", "result": "no effect"}
    ]}
  ]
}
